{"source": "patent US6117869A", "about": "“Compounds for and methods of inhibiting matrix metalloproteinases” (Warner-Lambert Company, priority 1999, dated 2000)", "origin": "cited, not measured here", "tested_on": "experimental allergic encephalomyelitis (EAE)", "conditions": "dose dependent; cited from earlier work"}
{"molecule": "CNC(=O)[C@H](Cc1c[nH]c2ccccc12)NC(=O)[C@@H](CC(=O)NO)CC(C)C", "note": "[GM6001]", "values": [{"measurement": "development or clinical expression of EAE", "result": "suppressed the development or reversed the clinical expression"}]}
